{"source": "PubChem BioAssay (NCI)", "assay_in_all_cases": "NCI tumour cell line growth inhibition, 48 h", "key": {"HCC-2998 colon": {"tested_on": "HCC-2998 colon"}, "NCI/ADR-RES ovarian": {"tested_on": "NCI/ADR-RES ovarian"}, "LOX IMVI melanoma": {"tested_on": "LOX IMVI melanoma"}, "HS 578T breast": {"tested_on": "HS 578T breast"}, "ACHN renal": {"tested_on": "ACHN renal"}, "HCT-15 colon": {"tested_on": "HCT-15 colon"}, "MDA-MB-435": {"tested_on": "MDA-MB-435"}, "COLO 205 colon": {"tested_on": "COLO 205 colon"}, "MOLT-4 leukemia": {"tested_on": "MOLT-4 leukemia"}, "SR leukemia": {"tested_on": "SR leukemia"}}, "note": "Several values for one entry are separate records, joined by “and”; a condition that tells them apart may be missing. Equal entries are not always repeated.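 All cell lines were grown in 96-well plates and treated with compound for 48 hours. GI50: concentration for 50% inhibition of growth. TGI: concentration producing complete growth inhibition.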", "data": [{"smiles": "CCCCc1ccc2nc(NC(=O)OC)[nH]c2c1", "values": [{"measurement": "GI50", "setting": "HCC-2998 colon", "value": 96.6, "unit": "nM"}, {"measurement": "TGI", "setting": "HCC-2998 colon", "value": 3.4, "unit": "µM"}, {"measurement": "GI50", "setting": "NCI/ADR-RES ovarian", "value": 31.1, "unit": "nM"}, {"measurement": "TGI", "setting": "NCI/ADR-RES ovarian", "value": 0.121, "unit": "µM"}, {"measurement": "GI50", "setting": "LOX IMVI melanoma", "value": 78.9, "unit": "nM"}, {"measurement": "TGI", "setting": "LOX IMVI melanoma", "value": "> 55.9", "unit": "µM"}, {"measurement": "GI50", "setting": "HS 578T breast", "value": 26.6, "unit": "nM"}, {"measurement": "TGI", "setting": "HS 578T breast", "value": 0.649, "unit": "µM"}, {"measurement": "GI50", "setting": "ACHN renal", "value": 77, "unit": "nM"}, {"measurement": "TGI", "setting": "ACHN renal", "value": "> 64.4", "unit": "µM"}, {"measurement": "GI50", "setting": "HCT-15 colon", "value": 43.4, "unit": "nM"}, {"measurement": "TGI", "setting": "HCT-15 colon", "value": "> 95.2", "unit": "µM"}, {"measurement": "GI50", "setting": "MDA-MB-435", "value": 14.8, "unit": "nM"}, {"measurement": "TGI", "setting": "MDA-MB-435", "value": 0.0379, "unit": "µM"}, {"measurement": "GI50", "setting": "COLO 205 colon", "value": 38, "unit": "nM"}, {"measurement": "TGI", "setting": "COLO 205 colon", "value": 0.37, "unit": "µM"}, {"measurement": "GI50", "setting": "MOLT-4 leukemia", "value": 38.2, "unit": "nM"}, {"measurement": "TGI", "setting": "MOLT-4 leukemia", "value": "> 100", "unit": "µM"}]}, {"smiles": "CCOP1(=O)OCC2OC(n3cnc4c(N)ncnc43)C(O)C2O1", "note": "(stereo not given)", "values": [{"measurement": "TGI", "setting": "NCI/ADR-RES ovarian", "value": "> 100", "unit": "µM"}, {"measurement": "TGI", "setting": "LOX IMVI melanoma", "value": "> 100", "unit": "µM"}, {"measurement": "TGI", "setting": "HS 578T breast", "value": "> 100", "unit": "µM"}, {"measurement": "TGI", "setting": "ACHN renal", "value": "> 100", "unit": "µM"}, {"measurement": "TGI", "setting": "HCT-15 colon", "value": "> 100", "unit": "µM"}, {"measurement": "TGI", "setting": "MDA-MB-435", "value": "> 100", "unit": "µM"}, {"measurement": "TGI", "setting": "SR leukemia", "value": "> 100", "unit": "µM"}, {"measurement": "TGI", "setting": "COLO 205 colon", "value": "> 100", "unit": "µM"}, {"measurement": "TGI", "setting": "MOLT-4 leukemia", "value": "> 100", "unit": "µM"}]}, {"smiles": "COC(=O)C1Cc2c([nH]c3ccccc23)[C@H](CC(C)C)N1", "note": "(stereo not given in full)", "values": [{"measurement": "TGI", "setting": "HCC-2998 colon", "value": "> 100", "unit": "µM"}, {"measurement": "TGI", "setting": "LOX IMVI melanoma", "value": "> 100", "unit": "µM"}, {"measurement": "TGI", "setting": "ACHN renal", "value": "> 100", "unit": "µM"}, {"measurement": "TGI", "setting": "SR leukemia", "value": "> 100", "unit": "µM"}, {"measurement": "TGI", "setting": "COLO 205 colon", "value": "> 100", "unit": "µM"}, {"measurement": "TGI", "setting": "MOLT-4 leukemia", "value": "> 100", "unit": "µM"}]}, {"smiles": "COc1ccc(NC(=O)CC/C(CC(=O)c2ccco2)=N/Nc2ccc([N+](=O)[O-])cc2[N+](=O)[O-])cc1", "values": [{"measurement": "TGI", "setting": "HCC-2998 colon", "value": "> 100", "unit": "µM"}, {"measurement": "TGI", "setting": "LOX IMVI melanoma", "value": "> 100", "unit": "µM"}, {"measurement": "TGI", "setting": "ACHN renal", "value": "> 100", "unit": "µM"}, {"measurement": "TGI", "setting": "HCT-15 colon", "value": "> 100", "unit": "µM"}, {"measurement": "TGI", "setting": "SR leukemia", "value": 64.4, "unit": "µM"}, {"measurement": "TGI", "setting": "COLO 205 colon", "value": "> 100", "unit": "µM"}, {"measurement": "TGI", "setting": "MOLT-4 leukemia", "value": 97.3, "unit": "µM"}]}, {"smiles": "C=CCCc1cc(OC)ccc1CN(C)C(C)(C)CO", "values": [{"measurement": "TGI", "setting": "LOX IMVI melanoma", "value": "> 100", "unit": "µM"}, {"measurement": "TGI", "setting": "ACHN renal", "value": "> 100", "unit": "µM"}, {"measurement": "TGI", "setting": "HCT-15 colon", "value": "> 100", "unit": "µM"}, {"measurement": "TGI", "setting": "SR leukemia", "value": "> 100", "unit": "µM"}, {"measurement": "TGI", "setting": "COLO 205 colon", "value": "> 100", "unit": "µM"}]}, {"smiles": "Cc1nc2c(cnn2-c2ccnc3c(C(F)(F)F)cccc23)c(=O)o1", "values": [{"measurement": "GI50", "setting": "HCC-2998 colon", "value": "> 100000", "unit": "nM"}, {"measurement": "TGI", "setting": "HCC-2998 colon", "value": "> 100", "unit": "µM"}, {"measurement": "GI50", "setting": "NCI/ADR-RES ovarian", "value": "> 100000", "unit": "nM"}, {"measurement": "TGI", "setting": "NCI/ADR-RES ovarian", "value": "> 100", "unit": "µM"}, {"measurement": "GI50", "setting": "LOX IMVI melanoma", "value": "> 100000", "unit": "nM"}, {"measurement": "TGI", "setting": "LOX IMVI melanoma", "value": "> 100", "unit": "µM"}, {"measurement": "GI50", "setting": "HS 578T breast", "value": "> 100000", "unit": "nM"}, {"measurement": "TGI", "setting": "HS 578T breast", "value": "> 100", "unit": "µM"}, {"measurement": "GI50", "setting": "ACHN renal", "value": "> 100000", "unit": "nM"}, {"measurement": "TGI", "setting": "ACHN renal", "value": "> 100", "unit": "µM"}, {"measurement": "GI50", "setting": "HCT-15 colon", "value": "> 100000", "unit": "nM"}, {"measurement": "TGI", "setting": "HCT-15 colon", "value": "> 100", "unit": "µM"}, {"measurement": "GI50", "setting": "MDA-MB-435", "value": "> 100000", "unit": "nM"}, {"measurement": "TGI", "setting": "MDA-MB-435", "value": "> 100", "unit": "µM"}, {"measurement": "GI50", "setting": "COLO 205 colon", "value": "> 100000", "unit": "nM"}, {"measurement": "TGI", "setting": "COLO 205 colon", "value": "> 100", "unit": "µM"}, {"measurement": "GI50", "setting": "MOLT-4 leukemia", "value": "> 100000", "unit": "nM"}, {"measurement": "TGI", "setting": "MOLT-4 leukemia", "value": "> 100", "unit": "µM"}]}, {"smiles": "O=c1[nH]nc(-c2ccccc2)c(-c2ccccc2)c1-n1nc(-c2ccccc2)c2ccccc2c1=O", "values": [{"measurement": "TGI", "setting": "HCC-2998 colon", "value": "> 100", "unit": "µM"}, {"measurement": "TGI", "setting": "ACHN renal", "value": "> 100", "unit": "µM"}, {"measurement": "TGI", "setting": "HCT-15 colon", "value": "> 100", "unit": "µM"}, {"measurement": "TGI", "setting": "SR leukemia", "value": "> 100", "unit": "µM"}, {"measurement": "TGI", "setting": "COLO 205 colon", "value": "> 100", "unit": "µM"}, {"measurement": "TGI", "setting": "MOLT-4 leukemia", "value": 88.7, "unit": "µM"}]}, {"smiles": "O=C(Nc1ccc(Cl)cc1)NS(=O)(=O)c1ccc2c(c1)CCC2", "values": [{"measurement": "GI50", "setting": "HCC-2998 colon", "value": 17.3, "unit": "µg/mL"}, {"measurement": "TGI", "setting": "HCC-2998 colon", "value": "> 77.6 µM and 36.8 µg/mL"}, {"measurement": "TGI", "setting": "LOX IMVI melanoma", "value": "> 79.9", "unit": "µM"}, {"measurement": "TGI", "setting": "HS 578T breast", "value": 13.1, "unit": "µM"}, {"measurement": "GI50", "setting": "ACHN renal", "value": 16.1, "unit": "µg/mL"}, {"measurement": "TGI", "setting": "ACHN renal", "value": "> 100 µM and 49.6 µg/mL"}, {"measurement": "GI50", "setting": "HCT-15 colon", "value": 16.3, "unit": "µg/mL"}, {"measurement": "TGI", "setting": "HCT-15 colon", "value": "> 90.2 µM and 41.8 µg/mL"}, {"measurement": "TGI", "setting": "MDA-MB-435", "value": 48.3, "unit": "µM"}, {"measurement": "GI50", "setting": "SR leukemia", "value": 19.3, "unit": "µg/mL"}, {"measurement": "TGI", "setting": "SR leukemia", "value": "> 100 µM and 91.6 µg/mL"}, {"measurement": "TGI", "setting": "COLO 205 colon", "value": "> 60.8", "unit": "µM"}, {"measurement": "GI50", "setting": "MOLT-4 leukemia", "value": 19.7, "unit": "µg/mL"}, {"measurement": "TGI", "setting": "MOLT-4 leukemia", "value": "98.2 µM and 74.6 µg/mL"}]}, {"smiles": "C=C1C(=O)OC2C1C(OC(=O)/C(=C/C)COC(C)=O)CC1(CO1)C1C(OC(=O)/C(=C/C)CO)C=C(C)C21", "note": "(stereo not given)", "values": [{"measurement": "TGI", "setting": "HCC-2998 colon", "value": 3.39, "unit": "µM"}, {"measurement": "TGI", "setting": "LOX IMVI melanoma", "value": 11.9, "unit": "µM"}, {"measurement": "TGI", "setting": "ACHN renal", "value": 4.4, "unit": "µM"}, {"measurement": "TGI", "setting": "HCT-15 colon", "value": 4.91, "unit": "µM"}, {"measurement": "TGI", "setting": "COLO 205 colon", "value": 2.3, "unit": "µM"}, {"measurement": "TGI", "setting": "MOLT-4 leukemia", "value": 2.24, "unit": "µM"}]}, {"smiles": "CC(=O)OC1COC(N2C(=O)C(=O)c3c(C)cc(Cl)nc32)C(OC(C)=O)C1OC(C)=O", "note": "(stereo not given)", "values": [{"measurement": "TGI", "setting": "LOX IMVI melanoma", "value": "> 100", "unit": "µM"}, {"measurement": "TGI", "setting": "ACHN renal", "value": "> 100", "unit": "µM"}, {"measurement": "TGI", "setting": "HCT-15 colon", "value": "> 100", "unit": "µM"}, {"measurement": "TGI", "setting": "SR leukemia", "value": "> 100", "unit": "µM"}, {"measurement": "TGI", "setting": "COLO 205 colon", "value": "> 100", "unit": "µM"}, {"measurement": "TGI", "setting": "MOLT-4 leukemia", "value": "> 100", "unit": "µM"}]}]}
